In patent US4120864A, “1,2,4-4H-triazole derivatives” (Rohm and Haas Company, priority 1972, dated 1978):
Structures can show the parent of a compound that is named as a salt. Where two headings read alike, the source gives them in different places.

Assays:
Botrytis cinerea = settings: in vivo
[1] = test system: wheat leaf rust, Puccinia recondita; assay: whole plant or invertebrate; assay type: in vivo; settings: foliar; for pest or weed control at 280.212 g/ha: read-out: % Control (with 1" of rain), foliar, 0.25 lb., 1" of rain; for pest or weed control at 1120.85 g/ha: read-out: % Control (with 1" of rain), foliar, 1 lb., 1" of rain
Phytophthora infestans = assay type: in vivo; settings: foliar application at 1200 ppm or root uptake from treated soil containing 20 ppm
[2] = test system: wheat leaf rust, Puccinia recondita; assay: whole plant or invertebrate; assay type: in vivo; settings: foliar; for pest or weed control at 280.212 g/ha: read-out: % Control (without rain), foliar, 0.25 lb.; for pest or weed control at 1120.85 g/ha: read-out: % Control (without rain), foliar, 1 lb.
[3] = test system: wheat leaf rust, Puccinia recondita; assay: Foliar systemic activity on leaf rust; assay type: in vivo
Description: Another type of systemic test was run in which pots of approximately 5 inch high wheat plants were sprayed with varying concentrations of the test compound. Thirty-six hours later they were sprayed six minutes in a rain machine which amounted to about one inch of normal rainfall. The plants were then placed in a greenhouse for 7 days and then inoculated with a spore suspension of wheat leaf rust, Puccinia recondita. About 7 days later lesion counts were made on ten leaves representing the sprayed leaves and new growth from each replicate and compared with similar pots of wheat plants which were untreated with a chemical and the percent disease control determined. Disease control on the new growth is a measure of systemic activity. The commercial product known by the trademarked name Plantvax, which is 2,3-dihydro-5-carboxanilido-6-methyl-1,4-oxathiin-4,4-dioxide, was used as a standard.

[4] = test system: wheat leaf rust, Puccinia recondita; assay type: in vivo

Row | Molecule | control of Botrytis cinerea on broad bean (Botrytis cinerea) | pest or weed control at 280.212 g/ha [1] [%] | pest or weed control at 1120.85 g/ha [1] [%] | control of Phytophthora infestans (Phytophthora infestans) | pest or weed control at 280.212 g/ha [2] [%] | pest or weed control at 1120.85 g/ha [2] [%] | % Rust Control, New growth ([3]; 1/2 lb./100 gal.) [%] | % Rust Control, Sprayed Leaf ([3]; 1/2 lb./100 gal.) [%] | % Rust Control, New growth ([3]; 1/6 lb./100 gal.) [%] | % Rust Control, Sprayed Leaf ([3]; 1/6 lb./100 gal.) [%] | % Rust Control, New growth ([3]; 1/12 lb./100 gal.) [%] | % Rust Control, Sprayed Leaf ([3]; 1/12 lb./100 gal.) [%] | % Systemic Wheat Leaf Rust Control ([4]; 2.5 ppm in soil) [%] | % Systemic Wheat Leaf Rust Control ([4]; 5 ppm in soil) [%] | % Systemic Wheat Leaf Rust Control ([4]; 10 ppm in soil) [%] | % Control (with 1" of rain) ([1]; 0.25 lb.) [%] | % Control (with 1" of rain) ([1]; 1 lb.) [%] | % Control (without rain) ([2]; 0.25 lb.) [%] | % Control (without rain) ([2]; 1 lb.) [%]
1 | 4-(2-ethylhexyl)-1,2,4-triazole [Example 11] | 50-85% |  |  |  |  |  |  |  |  |  |  |  |  |  |  |  |  |  | 
2 | c1ccc(OCCn2cnnc2)cc1 [Example 25, 4-(2-phenoxyethyl)-1,2,4-triazole] |  | 0 | 0 | good control | 0 | 0 |  |  |  |  |  |  |  |  |  |  |  |  | 
3 | CCCCn1cnnc1SCCOCC [Example 107, 3-(2-ethoxyethylmercapto)-4-n-butyl-1,2,4-triazole] |  | 100 | 100 |  | 100 | 100 | 61 | 73 | 23 | 27 | 17 | 25 | 52 | 85 | 89 |  |  |  | 
4 | CCOCCn1cnnc1 [Example 24, 4-(2-ethoxyethyl)-1,2,4-triazole] |  | 50 | 95 | good control | 80 | 95 |  |  |  |  |  |  |  |  |  |  |  |  | 
5 | CCCCn1cnnc1SC(=O)NC [Example 114, 3-methylcarbamoylmercapto-4-n-butyl-1,2,4-triazole] |  | 100 | 100 |  | 100 | 100 | 98 | 96 | 79 | 83 | 67 | 68 | 96 | 100 | 100 |  |  |  | 
6 | CCCCn1c(SC(=O)NC)nnc1C(=O)O [Example 99, 3-methylcarbamoylmercapto-4-n-butyl 5-carboxy-1,2,4-triazole] |  | 100 | 100 |  | 99 | 99 | 82 | 69 | 69 | 74 | 56 | 81 | 96 | 99 | 100 |  |  |  | 
7 | CCCCn1c(S)nnc1C(=O)O [Example 95, triethanolamine salt of 3-mercapto-4-n-butyl-5-carboxy-1,2,4-triazole] |  |  |  |  |  |  | 90 | 90 | 75 | 78 | 63 | 46 | 98 | 99 | 100 | 100 | 100 | 98 | 99
